Measured values published in publication PMC6481345, “A novel anti-melanoma SRC-family kinase inhibitor” (Oncotarget, 2019).
pIC50: −log10 of the molar value.

Legend:
[1] = tested on: panel of 36 recombinant kinases; experiment: Radioisotope filter assay, panel of recombinant kinases (summary); format: biochemical; conditions: SRC-family kinases YES1, BLK, LCK, FGR, HCK and FYN; read-out: IC50, range over kinases
Method: (§1) The effect of SAB298 on a panel of 36 recombinant kinases, was screed with the radioisotope filter binding assay employing 10 concentrations of the compound with 10 µM ATP (Reaction Biology Corporation, Malvern, PA). In addition, we tested the endogenous kinome response to SAB298 (0.05 µM, 0.5 µM and 5 µM) in lysates from two melanoma cell lines (YUSIV and YUSIK) employing the KiNativ® platform (ActivX Biosciences Inc., La Jolla, CA). KiNativ® is a robust, high performance mass spectrometry (LC-MS^2) assay that uses biotinylated probes to measure relevant changes in the affinity to the ATP-binding sites of 205 native kinases as a function of cellular context. We also validated SAB298 effect on the activity of SRC-family kinases by probing for phosphorylated Y416, the marker of activated SFKs, with anti-IEDNEpYTAR antibodies (also known as Y419, #2101, Cell Signaling Technology, Beverly, MA). In some cases the cells were incubated overnight with 20 µM proteasome inhibitor MG-132 (CAS 133407-82-6, Millipore Sigma, Burlington, MA) to rescue degradation.
Supplemntary Table 3: Radioisotope filter activity assay Tests for SAB298 target protein
*These are results from 10 point dose response test employed with 10 µM ATP.
Supplementary Table 4: Lentiviral vectors MISSION pLKO.1 puromycin bearing SFK shRNA used to test the effect of
specific SFK downregulation on cell proliferation […]

SRC = SRC (Homo sapiens, UniProt P12931); experiment: KiNativ in situ kinase profiling in melanoma cell lysates; format: binding; design: the endogenous kinome response to SAB298 (0.05 µM, 0.5 µM and 5 µM) in lysates from two melanoma cell lines; host or cells: YUSIV and YUSIK melanoma cell lysates
Method: as §1

LYN = LYN (Homo sapiens, UniProt P07948); experiment: as above; format: binding; design: the endogenous kinome response to SAB298 (0.05 µM, 0.5 µM and 5 µM) in lysates from two melanoma cell lines; host or cells: YUSIV and YUSIK melanoma cell lysates; conditions: 3-point dose response
Method: as §1

tyrosinase = experiment: Western blot, tyrosinase levels; format: cell-based, human; conditions: YUSIK, YUKIM and YUPEET; 0.5 µM for 20 hrs
Method: We used standard techniques to identify changes in intracellular signaling in response to various treatments. Briefly, melanoma cells were incubated with test compounds, using DMSO as a control, collected by scraping on ice, and lysed in RIPA buffer supplemented with protease and phosphatase inhibitors (MA #78428, and #78425, respectively, Thermo Fisher Scientific, Waltham, MA). Protein concentrations were measured with the BioRad kit (Bio-Rad Laboratories, Hercules, CA), SDS sample buffer was added, extracts were heated at 95°C, sonicated and centrifuged. Cell extracts (20 µg/lane) were fractionated in 3%–8% or 4–12 % tris-acetate gel (NP0006, NuPAGE Life Technologies). […]

[2] = target: native kinases in YUSIV and YUSIK lysates; experiment: KiNativ in situ kinase profiling (summary over kinases); format: binding, human; conditions: mTOR, EGFR, LCK and MEK1; read-out: IC50, range over kinases
Method: as §1

Chain of LYN (P07948 whole entry): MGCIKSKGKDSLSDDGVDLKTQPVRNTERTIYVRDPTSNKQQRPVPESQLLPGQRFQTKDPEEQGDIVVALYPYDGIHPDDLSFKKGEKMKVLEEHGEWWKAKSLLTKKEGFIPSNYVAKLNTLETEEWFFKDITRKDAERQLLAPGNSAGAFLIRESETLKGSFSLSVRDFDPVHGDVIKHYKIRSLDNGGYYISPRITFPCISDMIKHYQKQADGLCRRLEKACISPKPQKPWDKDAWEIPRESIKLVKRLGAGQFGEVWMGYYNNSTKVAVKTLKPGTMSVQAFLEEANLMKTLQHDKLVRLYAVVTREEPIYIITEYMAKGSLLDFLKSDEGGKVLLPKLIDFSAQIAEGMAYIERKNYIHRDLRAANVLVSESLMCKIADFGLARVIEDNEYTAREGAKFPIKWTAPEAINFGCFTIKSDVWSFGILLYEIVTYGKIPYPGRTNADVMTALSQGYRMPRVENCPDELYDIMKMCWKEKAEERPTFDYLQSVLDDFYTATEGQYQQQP
Chain of SRC (P12931 whole entry): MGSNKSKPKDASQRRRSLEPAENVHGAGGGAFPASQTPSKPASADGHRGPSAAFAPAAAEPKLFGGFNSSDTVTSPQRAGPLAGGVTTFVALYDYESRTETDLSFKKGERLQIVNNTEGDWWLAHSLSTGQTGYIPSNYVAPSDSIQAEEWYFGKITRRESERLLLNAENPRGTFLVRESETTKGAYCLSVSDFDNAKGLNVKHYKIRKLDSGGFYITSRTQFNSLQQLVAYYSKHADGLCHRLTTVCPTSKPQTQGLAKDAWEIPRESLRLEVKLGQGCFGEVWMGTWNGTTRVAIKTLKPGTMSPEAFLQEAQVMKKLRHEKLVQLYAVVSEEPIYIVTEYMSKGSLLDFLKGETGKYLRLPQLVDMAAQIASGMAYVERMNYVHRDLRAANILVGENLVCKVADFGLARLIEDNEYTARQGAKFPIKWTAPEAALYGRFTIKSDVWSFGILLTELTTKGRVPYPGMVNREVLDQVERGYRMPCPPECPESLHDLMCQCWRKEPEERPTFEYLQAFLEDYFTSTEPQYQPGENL

SMILES: Nc1ncnc2c1c(-c1ccc(Oc3ccccc3)cc1)nn2C[C@@H]1SSC[C@@H]1O [SAB298, (3S, 4S)-3-((4-amino-3-(4-phenoxyphenyl)-1H-pyrazolo[3,4-d]pyrimidin-1-yl)methyl)-1,2-dithiolan-4-ol]
- pIC50 [1]: 7.66 to 9.15
- higher binding affinity in KiNativ assay compared to radioisotope filtration binding assay (SRC; SRC): ~10 fold
- pIC50 (SRC; SRC in YUSIV lysate, 3-point dose response): 7.51
- pIC50 (LYN; LYN in YUSIK lysate): 6.72
- pIC50 (LYN; LYN in YUSIV lysate): 7.22
- tyrosinase levels (tyrosinase): suppressed the levels of tyrosinase
- pIC50 [2]: 5.54 to 5.89
